Test results reported in US8969565B2, “Imidazo[1,2-b]pyridazine-based compounds, compositions comprising them, and methods of their use” (Lexicon Pharmaceuticals, Inc., priority 2012, dated 2015).

The compounds below were run against T1, AAK1 (Homo sapiens, UniProt Q2M2I8) (assay: HEK281 cell-based assay (phospho-mu2 Western blot in transfected HEK293F cells)). Conditions: 3 hours incubation, read-out: CBA IC50.
T1 construct: HA; expressed in transfected cells; host or cells: HEK293F
Procedure: HEK293F cells were cultured in media containing DMEM (Gibco, cat. #11965), 10% FBS (SAFC Biosciences, cat. #12103C), 1×GPS (glutamine, penicillin and streptomycin). On day one, cells were plated on a 10 cm dish so that they are ˜80% confluent at time of transfection. Roughly 12 million cells were in a 10 cm dish at time of transfection. On day two, each dish was transfected with 48 ug DNA and 144 ul Lipofectamine 2000 (Invitrogen, cat.#11668-019). The DNA was comprised of a mixture (per 10 cm dish) containing 3 ug AAK1/HA/pIRES (full length human, NCBI accession no. NP_055726.2), 45 μg Flag/AP2MI/pcDNA (full length human), and 1.5 ml OPTI-MEM. The Lipofectamine 2000 is made up of a mixture (per 10 cm dish) containing 144 μl Lipofectamine 2000 and 1.5 ml OPTI-MEM. Each mixture was transferred to individual 15 ml tubes and incubated at RT for 5 minutes, and then the two mixes were combined and incubated at RT for 20 minutes. Growth media was then aspirated from each 10 cm plate and replaced with 10 ml of DMEM+10% FBS (no GPS). Finally, 3 ml DNA/Lipofectamine mix was added to each 10 cm dish and mix gently followed by incubate of plate overnight at 37° C. and 5% CO2.
On day three, compounds were diluted in 100% DMSO at 1000× final concentration, followed by 3-fold serial dilutions for a total of 5 concentrations tested. Four compounds were tested per 10 cm dish. One ul of each compound dilution was then pipetted into a deep-well, 96-well plate, followed by addition of 500 μl DMEM+0.5% FBS into each well for a 2× final concentration of each compound. Cells were resuspended in a 10 cm dish by simple pipetting (HEK293 cells come off the plate that easy at this point) and then transferred to a 50 ml conical tube and pelleted by centrifugation at 1000 rpm for 5 min. Cell pellets were then resuspended in 2.75 ml DMEM+0.5% FBS per 10 cm dish and 100 μl of cell suspension transferred into each well of 96-well TC plate. Finally, 100 μl of 2× compound diluted in DMEM+0.5% FBS was then added into wells containing cell suspension for a 1× final concentration. Plates were then incubated at 37° C. and 5% CO2 for 3 hours followed by transferring of cell suspensions from each well into 12-tube PCR strips. The PCR strips were spun in a tip rack at 1000 rpm for 5 minutes to pellet cells and media was then removed by pipetting without disturbing the cell pellet.
To prepare for Western Blot analysis, cell pellets were resuspend in 40 ul 1×LDS-PAGE sample buffer (Invitrogen, cat.#NP0008)+2× Halt phophatase and protease inhibitor cocktail (Thermo Scientific, cat.#1861284), followed by sonicating each with microtip sonicator set at 5 for 8-10 seconds. Five ul of 10× NuPage Sample Reducing Agent (with 50 mM DTT) was to each sample followed by heat denaturing at 70 C for 10 min on PCR machine. A total of 10 μl per sample was loaded into each lane of a 4-20% Tris-Glycine Criterion 26-well gel (Biorad, cat.#345-0034) for the phospho-mu2 blot and 10 μl per lane in a 4-12% Bis-Tris (+MES buffer) NuPAGE 26-well gel (Invitrogen, cat.#WG1403BX10) for the mu2 blot. For controls, 2 ng of phospho-mu2 or 20 ng mu2/Flag proteins were loaded in the last well of each gel. After SDS-PAGE, samples on each gel were transferred to PVDF membrane using an iBlot and membranes were blocked for one hour in TBST+5% milk, followed by wash 3× for 5-10 min with TBST. Criterion gels were probed with rabbit anti-phospho-mu2 (1:5000; a rabbit polyclonal antibody produced by New England Peptide and affinity purified at Lexicon) in TBST+5% BSA, whereas, NuPAGE gels were probed with mouse anti-Flag (1:500; Sigma, cat.#F1804) in TBST+5% milk, and these primary antibodies were incubated overnight at 4° C. on a rocker.

T1 sequence (Q2M2I8 1-863 isoform Q2M2I8-2): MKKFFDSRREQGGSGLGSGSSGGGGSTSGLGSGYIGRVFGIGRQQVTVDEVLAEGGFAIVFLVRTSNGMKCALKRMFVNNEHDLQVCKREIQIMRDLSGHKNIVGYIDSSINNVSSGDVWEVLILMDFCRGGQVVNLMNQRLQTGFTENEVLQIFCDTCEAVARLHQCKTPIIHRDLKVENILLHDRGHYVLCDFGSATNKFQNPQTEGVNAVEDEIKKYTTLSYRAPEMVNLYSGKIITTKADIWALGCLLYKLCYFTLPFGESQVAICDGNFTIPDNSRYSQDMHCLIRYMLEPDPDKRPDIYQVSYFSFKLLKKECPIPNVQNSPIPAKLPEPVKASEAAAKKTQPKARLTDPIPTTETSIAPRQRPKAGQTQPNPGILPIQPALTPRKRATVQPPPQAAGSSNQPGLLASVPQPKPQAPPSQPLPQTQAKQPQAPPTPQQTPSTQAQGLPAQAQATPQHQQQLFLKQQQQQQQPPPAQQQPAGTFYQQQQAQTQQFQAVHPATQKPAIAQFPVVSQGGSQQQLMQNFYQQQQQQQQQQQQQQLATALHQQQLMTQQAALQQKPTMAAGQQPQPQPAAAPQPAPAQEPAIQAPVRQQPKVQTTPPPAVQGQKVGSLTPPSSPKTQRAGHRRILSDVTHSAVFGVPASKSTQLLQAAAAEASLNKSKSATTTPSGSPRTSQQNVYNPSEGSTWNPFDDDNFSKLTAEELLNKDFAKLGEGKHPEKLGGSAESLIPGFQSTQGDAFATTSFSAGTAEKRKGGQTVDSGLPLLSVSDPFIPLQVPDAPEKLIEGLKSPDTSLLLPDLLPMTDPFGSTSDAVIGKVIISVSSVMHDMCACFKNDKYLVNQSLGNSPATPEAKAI

IC50 | SMILES
≤ 1000 nM | NCc1ccc(-c2cnc3ccc(NCC4CC4)nn23)cc1 [3-(4-(aminomethyl)phenyl)-N-(cyclopropylmethyl)imidazo[1,2-b]pyridazin-6-amine]
≤ 1000 nM | CC(C)CNc1ccc2ncc(-c3ccc(CN)cc3)n2n1 [3-(4-(aminomethyl)phenyl)-N-isobutylimidazo[1,2-b]pyridazin-6-amine]
≤ 1000 nM | CC(C)CCNc1ccc2ncc(-c3ccc(CN)cc3)n2n1 [3-(4-(aminomethyl)phenyl)-N-isopentylimidazo[1,2-b]pyridazin-6-amine]
≤ 100 nM | CC(C)(C)CNc1ccc2ncc(-c3ccc(CN)cc3)n2n1 [3-(4-(aminomethyl)phenyl)-N-neopentylimidazo[1,2-b]pyridazin-6-amine]
≤ 1000 nM | CCCCCNc1ccc2ncc(-c3ccc(CN)cc3)n2n1 [3-(4-(aminomethyl)phenyl)-N-pentylimidazo[1,2-b]pyridazin-6-amine]
≤ 1000 nM | NCc1ccc(-c2cnc3ccc(NCCc4ccccc4)nn23)cc1 [3-(4-(aminomethyl)phenyl)-N-phenethylimidazo[1,2-b]pyridazin-6-amine]
≤ 1000 nM | CCCNc1ccc2ncc(-c3ccc(CN)cc3)n2n1 [3-(4-(aminomethyl)phenyl)-N-propylimidazo[1,2-b]pyridazin-6-amine]
≤ 100 nM | CC(C)OC(=O)N1CCN(c2ccc3ncc(-c4ccccc4)n3n2)CC1 [4-(3-Phenyl-imidazo[1,2-b]pyridazin-6-yl)-piperazine-1-carboxylic acid isopropyl ester]
≤ 100 nM | CN(CCNc1ccc2ncc(-c3ccc(C(N)=O)cc3)n2n1)C(=O)CC(C)(C)C [4-(6-((2-(N,3,3-trimethylbutanamido)ethyl)amino)imidazo[1,2-b]pyridazin-3-yl)benzamide]
≤ 10 nM | NC(=O)c1ccc(-c2cnc3ccc(NCCc4ccccc4OC(F)(F)F)nn23)cc1 [4-(6-((2-(trifluoromethoxy)phenethyl)amino)imidazo[1,2-b]pyridazin-3-yl)benzamide]
≤ 10 nM | CCOc1ccccc1CCNc1ccc2ncc(-c3ccc(C(=O)NC)cc3)n2n1 [4-(6-((2-ethoxyphenethyl)amino)imidazo[1,2-b]pyridazin-3-yl)-N-methylbenzamide]
≤ 100 nM | CC(C)OCCNc1ccc2ncc(-c3ccc(C(=O)NCCN4CCCC4)cc3)n2n1 [4-(6-((2-isopropoxyethyl)amino)imidazo[1,2-b]pyridazin-3-yl)-N-(2-(pyrrolidin-1-yl)ethyl)benzamide]
≤ 10 nM | COc1ccccc1CCNc1ccc2ncc(-c3ccc(C(N)=O)cc3)n2n1 [4-(6-((2-methoxyphenethyl)amino)imidazo[1,2-b]pyridazin-3-yl)benzamide]
≤ 100 nM | NC(=O)c1ccc(-c2cnc3ccc(NCCc4cccc(C(F)(F)F)c4)nn23)cc1 [4-(6-((3-(trifluoromethyl)phenethyl)amino)imidazo[1,2-b]pyridazin-3-yl)benzamide]
≤ 100 nM | CCCCNc1ccc2ncc(-c3ccc(C(=O)NCCNC)c(F)c3)n2n1 [4-(6-(butylamino)imidazo[1,2-b]pyridazin-3-yl)-2-fluoro-N-(2-(methylamino)ethyl)benzamide]
≤ 10 nM | CCCCNc1ccc2ncc(-c3ccc(C(=O)NCCN(CC)CC)cc3)n2n1 [4-(6-(butylamino)imidazo[1,2-b]pyridazin-3-yl)-N-(2-(diethylamino)ethyl)benzamide]

SMILES | IC50
CCN(CC)CCNC(=O)c1ccc(-c2cnc3ccc(NCCOC(C)(C)C)nn23)cc1 [4-(6-((2-(tert-butoxy)ethyl)amino)imidazo[1,2-b]pyridazin-3-yl)-N-(2-(diethylamino)ethyl)benzamide] | ≤ 100 nM
CNC(=O)c1ccc(-c2cnc3ccc(NCCOC(C)(C)C)nn23)cc1 [4-(6-((2-(tert-butoxy)ethyl)amino)imidazo[1,2-b]pyridazin-3-yl)-N-methylbenzamide] | ≤ 100 nM
CC(C)COCCNc1ccc2ncc(-c3ccc(C(=O)NCCN4CCCC4)cc3)n2n1 [4-(6-((2-isobutoxyethyl)amino)imidazo[1,2-b]pyridazin-3-yl)-N-(2-(pyrrolidin-1-yl)ethyl)benzamide] | ≤ 100 nM
